Measurements published in patent US6544561B2 (The Lachlan Family Pty Ltd., priority 1997, dated 2003).

What was measured:
[1] = tested on: outbred (Swiss) female mice; conditions: drinking water with Mg2+ 120 mg per liter from weaning, fed on alternate days
Method: A short-lived mammalian species was chosen. […] Two hundred outbred (Swiss) female mice were divided randomly at weaning into two groups of 100 mice and were maintained under identical management and environmental conditions.
The second group of mice was supplied with drinking water that contained magnesium sulphate (Epsom salts) 1 gram per liter with a pH value between pH 6.5 and pH 7.0. This drinking water contained approximately Mg^2+ 120mg per liter. Bicarbonate anions were absent.
Both groups of mice were fed commercial laboratory food that contained 1 gram of magnesium per kilogram of food. Both groups of mice were fed on alternate days with no food available on the other days. Group-specific drinking water (as described above) was available at all times.

[2] = tested on: post menopausal women with osteoarthritis in the joints of their hands; conditions: in vivo
Text: For an experimental trial, a group of post menopausal women were chosen who had clinical signs of osteoarthritis in the joints of their hands. The osteoarthritic joints included the distal and proximal interphalangeal joints of the fingers and the carpometacarpal joint of the thumbs. In all cases, loss of joint function was moderate to severe.
In all cases, the women suffered pain, swelling of the fingers and loss of joint movement. […] Women with affected thumbs had considerable loss of function and considerable pain. […] The women consumed between 2 to 3 liters of bicarbonate solution per day. […] Consumption was commenced at half a liter per day and increased by increments over a period of one month to 2 to 3 liters per day. Consumption occurred on an empty stomach to avoid the loss of bicarbonate by stomach acid. Consumption occurred in small amounts (300 mL) at set times each day to avoid rapid increases in bicarbonate concentrations of body fluids.

[3] = with lowered body weight; text refers to the trial of Example 5
Method: A trial involving people consuming bicarbonate anions in water was conducted. These people were middle aged and overweight and complained of tiredness and lethargy. No control group was maintained for the duration of the trial (people in an initial control group were unable to consume the volumes of soft water required). […] They were requested to decrease their food (calorie) intake considerably and to avoid dietary fats.
Bicarbonate concentration was established at a maximum of one gram per liter.
Each participant in the trial was advised to consume the bicarbonate solution ‘on an empty stomach’. […] Advice was given also to consume the solution in small amounts at set times each day. Consumption in this manner avoided a rapid increase in the bicarbonate concentrations of body fluids.

Row | Compound | Fifty Percent Survival [1] | Maximum Life Span [1] | Pain and swelling associated with osteoarthritis [2] | Blood pressure [3]
1 | O=S(=O)([O-])[O-].[Mg+2] [magnesium sulphate, reference compound] | 736 days | 1040 days | – | –
2 | magnesium bicarbonate | 790 days | 1152 days | alleviated the pain and swelling associated with osteoarthritis | reduction in high blood pressure to a normal value
